# In PMC11149885 (PLOS ONE, 2024):
# Where “and” joins values, the source holds several entries; their conditions need not be identical. Equal entries are not always repeated.
# Tests used:
# [1] = molecular target: T1, FGFR1 (Homo sapiens, UniProt P11362); test: HotSpot kinase screen; type: biochemical; settings: 10μM ATP
# T1 construct: purchased Reaction Biology Corporation (contract assay)
# [2] = molecular target: T2, FGFR3 (Homo sapiens, UniProt P22607); test: HotSpot kinase screen; type: biochemical; settings: 1uM TKI, 10μM ATP
# T2 construct: purchased Reaction Biology Corporation (contract assay)
# [3] = molecular target: T3, FGFR2 (Homo sapiens, UniProt P21802); test: HotSpot kinase screen; type: biochemical; settings: 10μM ATP
# T3 construct: purchased Reaction Biology Corporation (contract assay)
# Experimental: (§1) Measurement of kinase activity was performed by Reaction Biology Corporation (Reaction Biology Corporation, Malvern, PA), using the HotSpot™ assay. The screen focused on RTKs reported in the literature to play a major role in the regulation of angiogenesis (VEGFR1, VEGFR2, and VEGFR3; fibroblast growth factor receptor [FGFR] 1, 2, and 3; and platelet-derived growth factor receptor beta [PDGFRβ]) as well as an RTK essential for maintaining blood vessel stability (TIE2). For the profiling, specific kinase/substrate pairs and required cofactors were prepared in a reaction buffer (20mM Hepes [pH 7.5], 10mM MgCl2, 1mM EGTA, 0.02% Brij35, 0.02 mg/mL BSA, 0.1mM Na3VO4, 2mM DTT, 1% dimethyl sulfoxide [DMSO]). TKI compounds were diluted to 10μM and 1μM concentrations for the screens and after addition to the reaction buffer incubated for 20 minutes, followed by the addition of a mixture of ATP (Sigma, St. Louis, MO) and ^33P-ATP (Perkin Elmer, Waltham, MA) to a final ATP concentration of 10μM. Reactions were carried out at room temperature for 2 hours, followed by spotting of the reactions onto P81 ion exchange filter paper (Whatman Inc., Piscataway, NJ). Unbound phosphate was removed by extensive washing of the filters. […] Kinome TREEspot images representing levels of inhibition were prepared using Kinome Mapper (https://www.reactionbiology.com/resources/tools/kinase-mapper).
# [4] = molecular target: T4, VEGFR3 (Homo sapiens, UniProt P35916); test: HotSpot kinase screen; type: biochemical; settings: 10μM ATP
# T4 construct: purchased Millipore Corporation (Dundee, Scotland) or Reaction Biology Corporation (contract assay)
# Experimental: as §1
# [5] = molecular target: T5, PDGFRβ (Homo sapiens, UniProt P09619); test: HotSpot kinase screen; type: biochemical; settings: 10μM ATP
# T5 construct: purchased Reaction Biology Corporation (contract assay)
# [6] = molecular target: T4, VEGFR3; test: Ten-dose IC50 measurement; type: biochemical; settings: 10μM ATP
# [7] = test system: VEGF-A–induced sprouting of HUVECs; test: HUVEC spheroid sprouting assay; type: cell-based, human; settings: for cumulative sprout length per spheroid (CSL), mean: 25 ng/mL VEGF-165, 24 hours
# Experimental: The three TKI compounds were tested by Reaction Biology Europe (Freiburg, Germany) in the spheroid-based cellular angiogenesis assay to determine their effect on VEGF-A–induced sprouting of HUVECs. Primary HUVECs from pooled donors at passage 3 to 4 (PromoCell, Heidelberg, Germany) were grown in endothelial cell growth and basal medium (ECGM/ECBM, PromoCell). Test compounds were prepared as 100-fold concentrated stock solutions in DMSO and pre-diluted in basal medium. HUVECs were stimulated using 25 ng/mL VEGF-165 (Reaction Biology Europe, Freiburg, Germany) pre-diluted in basal medium.
# Spheroids were prepared as described by pipetting 400 HUVECs in a hanging drop on plastic dishes to allow overnight spheroid aggregation. Fifty HUVEC spheroids were seeded in 0.9 mL of a collagen gel and pipetted into individual wells of a 24-well plate to allow polymerization. Test compounds and VEGF-165 were added after 30 minutes by pipetting 100 μL of a ten-fold concentrated solution onto the polymerized gel. Plates were incubated at 37°C for 24 hours, and cells were fixed by adding 4% paraformaldehyde (Roth, Karlsruhe, Germany). Sprouting intensity of HUVEC spheroids treated with the test samples was quantitated using an image analysis system to determine the cumulative sprout length (CSL) per spheroid. Images of single spheroids were captured using an inverted microscope and the digital imaging software NIS-Elements BR 3.0 (Nikon). Spheroid pictures were uploaded to Wimasis (www.wimasis.com) for image analysis. The CSL of each spheroid was determined using the imaging analysis tool WimSprout. The mean CSL of ten randomly selected spheroids was analyzed as an individual data point.
# [8] = molecular target: T6, VEGFR1 (Homo sapiens, UniProt P17948); test: Ten-dose IC50 measurement; settings: 10μM ATP
# [9] = molecular target: T7, TIE2 (Homo sapiens, UniProt Q02763); test: Ten-dose IC50 measurement; settings: 10μM ATP
# [10] = molecular target: T7, TIE2; test: HotSpot kinase screen; type: biochemical; parameters: purchased Reaction Biology Corporation (contract assay); settings: 1uM TKI, 10μM ATP
# [11] = test system: VEGF-induced angiogenesis on the CAM; test: Gelatin sponge chick chorioallantoic membrane (CAM) assay; settings: for Angiogenesis - Vessel thickness score, Mean: score 0-3; for Angiogenesis - Vessel thickness score, individual egg: score 0-3, one value per egg
# [12] = molecular target: T6, VEGFR1; test: HotSpot kinase screen; type: biochemical; parameters: purchased Millipore Corporation (Dundee, Scotland) or Reaction Biology Corporation (contract assay); settings: 10μM ATP
# Experimental: as §1
# [13] = 0.5 mg/kg bevacizumab (20.15μM)
# T4 sequence (P35916 25-1363): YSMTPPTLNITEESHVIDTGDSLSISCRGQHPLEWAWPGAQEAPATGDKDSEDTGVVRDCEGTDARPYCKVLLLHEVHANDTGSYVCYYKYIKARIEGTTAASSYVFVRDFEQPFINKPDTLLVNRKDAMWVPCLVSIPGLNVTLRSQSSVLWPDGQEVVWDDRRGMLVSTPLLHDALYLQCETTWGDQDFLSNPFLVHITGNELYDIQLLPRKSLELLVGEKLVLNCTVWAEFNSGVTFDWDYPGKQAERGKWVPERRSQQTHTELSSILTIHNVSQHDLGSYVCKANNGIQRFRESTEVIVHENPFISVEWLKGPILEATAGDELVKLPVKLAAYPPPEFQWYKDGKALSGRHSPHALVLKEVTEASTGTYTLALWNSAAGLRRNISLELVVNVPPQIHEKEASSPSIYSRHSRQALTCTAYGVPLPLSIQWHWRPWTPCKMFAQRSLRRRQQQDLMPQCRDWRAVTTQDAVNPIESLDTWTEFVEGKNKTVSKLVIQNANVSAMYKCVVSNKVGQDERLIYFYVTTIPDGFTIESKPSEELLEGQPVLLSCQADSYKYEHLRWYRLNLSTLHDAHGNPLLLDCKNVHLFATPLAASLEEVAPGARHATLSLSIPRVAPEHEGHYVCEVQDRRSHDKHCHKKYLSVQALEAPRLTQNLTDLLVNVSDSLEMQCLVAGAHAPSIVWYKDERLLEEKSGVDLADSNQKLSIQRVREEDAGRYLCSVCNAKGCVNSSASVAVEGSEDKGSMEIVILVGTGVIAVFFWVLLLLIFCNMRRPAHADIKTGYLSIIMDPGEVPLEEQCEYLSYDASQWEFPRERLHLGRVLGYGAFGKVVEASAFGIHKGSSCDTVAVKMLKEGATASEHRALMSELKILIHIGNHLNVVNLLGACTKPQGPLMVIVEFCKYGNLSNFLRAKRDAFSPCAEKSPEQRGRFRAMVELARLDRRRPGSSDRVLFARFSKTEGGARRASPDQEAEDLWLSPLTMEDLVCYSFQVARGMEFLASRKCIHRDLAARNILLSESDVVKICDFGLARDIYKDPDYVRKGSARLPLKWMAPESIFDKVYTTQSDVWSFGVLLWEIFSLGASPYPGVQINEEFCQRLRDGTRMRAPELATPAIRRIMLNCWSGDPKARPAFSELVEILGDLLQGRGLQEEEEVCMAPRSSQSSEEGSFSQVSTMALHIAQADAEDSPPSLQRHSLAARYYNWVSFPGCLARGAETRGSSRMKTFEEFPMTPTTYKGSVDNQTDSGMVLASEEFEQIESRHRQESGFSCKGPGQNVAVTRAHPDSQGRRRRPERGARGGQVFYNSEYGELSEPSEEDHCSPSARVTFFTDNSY
# T6 sequence (P17948 27-1338): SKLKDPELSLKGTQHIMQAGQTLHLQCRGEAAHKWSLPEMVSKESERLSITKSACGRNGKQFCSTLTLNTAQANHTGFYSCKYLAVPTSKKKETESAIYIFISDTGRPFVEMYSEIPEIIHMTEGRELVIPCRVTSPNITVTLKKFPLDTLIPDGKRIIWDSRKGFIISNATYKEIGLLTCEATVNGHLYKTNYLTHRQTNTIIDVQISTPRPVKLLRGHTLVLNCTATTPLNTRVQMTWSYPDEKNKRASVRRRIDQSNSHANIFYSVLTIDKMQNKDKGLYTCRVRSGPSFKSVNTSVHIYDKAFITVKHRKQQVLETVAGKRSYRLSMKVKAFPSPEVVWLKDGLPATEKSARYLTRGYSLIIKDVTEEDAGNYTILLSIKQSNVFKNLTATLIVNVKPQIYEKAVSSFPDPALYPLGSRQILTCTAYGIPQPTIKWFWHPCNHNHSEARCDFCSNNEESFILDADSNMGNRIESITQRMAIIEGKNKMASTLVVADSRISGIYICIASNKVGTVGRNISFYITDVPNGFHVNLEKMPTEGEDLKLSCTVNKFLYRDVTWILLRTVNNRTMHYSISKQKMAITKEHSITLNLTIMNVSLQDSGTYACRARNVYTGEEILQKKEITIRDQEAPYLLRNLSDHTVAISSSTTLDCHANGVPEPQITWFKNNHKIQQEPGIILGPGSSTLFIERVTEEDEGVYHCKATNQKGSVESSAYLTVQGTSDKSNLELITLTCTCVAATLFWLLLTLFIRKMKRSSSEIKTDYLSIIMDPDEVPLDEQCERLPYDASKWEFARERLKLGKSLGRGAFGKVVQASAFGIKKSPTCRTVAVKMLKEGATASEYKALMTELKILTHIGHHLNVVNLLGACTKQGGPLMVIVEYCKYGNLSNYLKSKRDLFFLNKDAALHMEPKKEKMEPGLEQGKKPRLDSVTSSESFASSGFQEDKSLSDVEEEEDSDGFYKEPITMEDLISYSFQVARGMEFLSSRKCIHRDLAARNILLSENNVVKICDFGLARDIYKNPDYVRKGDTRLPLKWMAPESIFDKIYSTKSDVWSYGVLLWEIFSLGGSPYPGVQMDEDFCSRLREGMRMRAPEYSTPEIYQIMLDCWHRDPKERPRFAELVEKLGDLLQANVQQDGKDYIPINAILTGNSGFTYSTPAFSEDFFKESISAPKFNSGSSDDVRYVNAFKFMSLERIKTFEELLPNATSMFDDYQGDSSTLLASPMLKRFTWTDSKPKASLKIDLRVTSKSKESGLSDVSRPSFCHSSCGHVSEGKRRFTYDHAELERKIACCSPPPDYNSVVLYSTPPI
# T7 sequence (Q02763 23-1124): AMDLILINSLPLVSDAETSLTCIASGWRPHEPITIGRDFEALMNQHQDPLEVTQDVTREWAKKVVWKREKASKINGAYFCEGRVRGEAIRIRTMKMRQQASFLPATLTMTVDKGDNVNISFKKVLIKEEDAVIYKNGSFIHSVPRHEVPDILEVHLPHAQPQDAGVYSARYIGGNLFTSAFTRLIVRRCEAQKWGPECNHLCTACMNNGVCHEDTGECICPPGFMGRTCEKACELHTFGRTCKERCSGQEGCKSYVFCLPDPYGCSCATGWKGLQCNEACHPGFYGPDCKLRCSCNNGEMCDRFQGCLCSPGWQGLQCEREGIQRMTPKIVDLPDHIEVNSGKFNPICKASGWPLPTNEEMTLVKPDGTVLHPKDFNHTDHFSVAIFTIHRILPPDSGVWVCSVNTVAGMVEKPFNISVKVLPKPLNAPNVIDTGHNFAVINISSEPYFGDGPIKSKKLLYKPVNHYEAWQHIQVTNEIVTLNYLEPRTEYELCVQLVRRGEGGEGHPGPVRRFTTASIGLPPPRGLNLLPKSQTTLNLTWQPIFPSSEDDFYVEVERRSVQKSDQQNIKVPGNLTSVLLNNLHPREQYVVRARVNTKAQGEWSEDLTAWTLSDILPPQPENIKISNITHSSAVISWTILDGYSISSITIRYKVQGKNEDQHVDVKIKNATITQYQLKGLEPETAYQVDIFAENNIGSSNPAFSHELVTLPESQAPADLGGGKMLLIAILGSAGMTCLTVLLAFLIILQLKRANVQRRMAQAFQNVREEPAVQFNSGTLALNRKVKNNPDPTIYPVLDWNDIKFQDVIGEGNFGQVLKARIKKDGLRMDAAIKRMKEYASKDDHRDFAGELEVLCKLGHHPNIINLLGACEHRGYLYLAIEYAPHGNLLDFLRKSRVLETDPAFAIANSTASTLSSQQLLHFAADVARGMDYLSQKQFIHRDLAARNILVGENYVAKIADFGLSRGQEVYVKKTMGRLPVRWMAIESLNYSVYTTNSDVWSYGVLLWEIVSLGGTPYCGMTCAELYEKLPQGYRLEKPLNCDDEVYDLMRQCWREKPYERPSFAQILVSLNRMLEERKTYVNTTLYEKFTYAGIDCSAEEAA
# T5 sequence (P09619 33-1106): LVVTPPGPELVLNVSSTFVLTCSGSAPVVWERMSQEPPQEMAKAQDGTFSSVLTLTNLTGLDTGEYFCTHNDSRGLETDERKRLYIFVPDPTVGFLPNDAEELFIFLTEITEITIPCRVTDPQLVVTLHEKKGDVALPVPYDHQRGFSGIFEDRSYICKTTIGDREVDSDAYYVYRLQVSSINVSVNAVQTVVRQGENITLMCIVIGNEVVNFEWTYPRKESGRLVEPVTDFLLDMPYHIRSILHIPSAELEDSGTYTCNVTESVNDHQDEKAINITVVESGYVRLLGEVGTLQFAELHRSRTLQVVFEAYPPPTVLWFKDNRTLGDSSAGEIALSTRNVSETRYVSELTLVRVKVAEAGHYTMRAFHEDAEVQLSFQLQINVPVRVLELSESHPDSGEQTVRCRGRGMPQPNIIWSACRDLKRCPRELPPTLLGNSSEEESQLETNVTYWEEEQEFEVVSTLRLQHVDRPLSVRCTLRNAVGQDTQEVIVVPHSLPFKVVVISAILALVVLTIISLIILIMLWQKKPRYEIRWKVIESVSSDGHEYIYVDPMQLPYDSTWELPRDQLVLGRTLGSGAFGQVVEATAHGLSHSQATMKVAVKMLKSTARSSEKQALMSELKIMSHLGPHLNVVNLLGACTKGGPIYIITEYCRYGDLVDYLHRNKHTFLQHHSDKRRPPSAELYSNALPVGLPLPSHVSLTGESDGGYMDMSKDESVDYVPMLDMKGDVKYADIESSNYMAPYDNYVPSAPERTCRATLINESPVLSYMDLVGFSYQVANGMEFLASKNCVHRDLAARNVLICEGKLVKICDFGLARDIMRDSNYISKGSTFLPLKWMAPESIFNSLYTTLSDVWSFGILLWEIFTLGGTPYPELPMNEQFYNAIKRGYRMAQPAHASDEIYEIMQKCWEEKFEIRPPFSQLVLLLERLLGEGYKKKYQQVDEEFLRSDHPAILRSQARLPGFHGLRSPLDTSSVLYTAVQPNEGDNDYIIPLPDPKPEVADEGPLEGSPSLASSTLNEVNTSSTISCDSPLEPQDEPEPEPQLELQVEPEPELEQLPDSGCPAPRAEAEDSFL
molecule,measurement,setting,value
CCN(CC)CCNC(=O)c1c(C)[nH]c(/C=C2\C(=O)Nc3ccc(F)cc32)c1C [Sunitinib],Avg % Inhibition FGFR1,[1]; 1uM TKI,61.61%
same,Avg % Inhibition FGFR1,[1]; 10uM TKI,93.09%
same,Avg % Inhibition FGFR3,[2],79.29%
same,Avg % Inhibition FGFR2,[3]; 1uM TKI,77.42%
same,Avg % Inhibition FGFR2,[3]; 10uM TKI,98.03%
same,Avg % Inhibition VEGFR3,[4]; 1uM TKI,86.7%
same,Avg % Inhibition VEGFR3,[4]; 10uM TKI,99.18%
same,Avg % Inhibition PDGFRb,[5]; 1uM TKI,92.22%
same,Avg % Inhibition PDGFRb,[5]; 10uM TKI,97.19%
same,%Activity VEGFR3,[6]; 1.00E-05 M TKI,1.67%
same,%Activity VEGFR3,[6]; 1.11E-06 M TKI,9.53%
same,%Activity VEGFR3,[6]; 1.23E-07 M TKI,31.11%
same,%Activity VEGFR3,[6]; 1.37E-08 M TKI,63.61%
same,%Activity VEGFR3,[6]; 1.52E-09 M TKI,80.77%
same,%Activity VEGFR3,[6]; 3.33E-06 M TKI,3.43%
same,%Activity VEGFR3,[6]; 3.70E-07 M TKI,18.20%
same,%Activity VEGFR3,[6]; 4.12E-08 M TKI,47.10%
same,%Activity VEGFR3,[6]; 4.57E-09 M TKI,73.23%
same,%Activity VEGFR3,[6]; 5.08E-10 M TKI,86.68%
same,"cumulative sprout length per spheroid (CSL), mean",[7]; 1.00E-05 M TKI,99
same,"cumulative sprout length per spheroid (CSL), mean",[7]; 1.00E-06 M TKI,298
same,"cumulative sprout length per spheroid (CSL), mean",[7]; 1.00E-07 M TKI,387
same,"cumulative sprout length per spheroid (CSL), mean",[7]; 3.00E-06 M TKI,173
same,"cumulative sprout length per spheroid (CSL), mean",[7]; 3.00E-07 M TKI,230
same,"cumulative sprout length per spheroid (CSL), mean",[7]; 3.00E-08 M TKI,893
same,vessel sprouting (representative spheroid images),[7]; highest test concentration of 1×10^–5M,zero vessel sprouting
same,%Activity VEGFR1,[8]; 1.00E-05 M TKI,2.53%
same,%Activity VEGFR1,[8]; 1.11E-06 M TKI,20.58%
same,%Activity VEGFR1,[8]; 1.37E-08 M TKI,78.18%
same,%Activity VEGFR1,[8]; 1.52E-09 M TKI,84.25%
same,%Activity VEGFR1,[8]; 3.33E-06 M TKI,8.53%
same,%Activity VEGFR1,[8]; 3.70E-07 M TKI,35.25%
same,%Activity VEGFR1,[8]; 4.12E-08 M TKI,63.70%
same,%Activity VEGFR1,[8]; 4.57E-09 M TKI,84.35%
same,%Activity VEGFR1,[8]; 5.08E-10 M TKI,93.32%
same,%Activity TIE2,[9]; 1.00E-05 M TKI,44.88%
same,%Activity TIE2,[9]; 1.11E-06 M TKI,93.41%
same,%Activity TIE2,[9]; 1.37E-08 M TKI,98.62%
same,%Activity TIE2,[9]; 1.52E-09 M TKI,99.65%
same,%Activity TIE2,[9]; 3.33E-06 M TKI,74.48%
same,%Activity TIE2,[9]; 3.70E-07 M TKI,96.23%
same,%Activity TIE2,[9]; 4.12E-08 M TKI,95.60%
same,%Activity TIE2,[9]; 4.57E-09 M TKI,97.42%
same,%Activity TIE2,[9]; 5.08E-10 M TKI,95.09%
same,Avg % Inhibition TIE2,[10],5.03%
same,Avg % Inhibition TIE2,[10]; listed as sunitinib,5%
same,"Angiogenesis - Vessel number, Mean",[11]; TKI at 200 x VEGFR2 IC50,7
same,"Angiogenesis - Vessel number, individual egg","[11]; TKI at 200 x VEGFR2 IC50, one value per egg",8.67 and 8.33 and 1.67 and 6.67 and 3.33
same,reduction of the number of blood vessels perfusing the sponges vs negative control,[11]; TKI at 200× VEGFR2 IC50 dose,49.3%
same,"Angiogenesis - Vessel thickness score, Mean",[11]; TKI at VEGFR2 IC50 dose,1.8
same,"Angiogenesis - Vessel thickness score, individual egg",[11]; TKI at VEGFR2 IC50 dose,3 and 0.67 and 2 and 2.33 and 1.33 and 1
same,Avg % Inhibition VEGFR1,[12]; 1uM TKI,77.03%
same,Avg % Inhibition VEGFR1,[12]; 10uM TKI,93.14%
"Bevacizumab: known anti-VEGF antibody, reference compound (positive control) in the CAM assay","Angiogenesis - Vessel number, Mean",[11]; [13],11.4
same,"Angiogenesis - Vessel number, individual egg","[11]; 0.5 mg/kg bevacizumab (20.15μM), one value per egg",9.33 and 9.67
same,vessel reduction compared to the negative control,"[11]; 0.5 mg/kg bevacizumab (20.15μM), p = 0.05",18%
same,"Angiogenesis - Vessel thickness score, Mean",[11]; [13],0.8
same,"Angiogenesis - Vessel thickness score, individual egg",[11]; [13],1.33 and 0.33 and 1.67 and 0 and 1
